In patent US7799821B2, “Therapeutic compounds” (Allergan, Inc., priority 2004, dated 2010):
Values belong to the compound of their own block, whether it stands above or below them.

Experiments:
hIP = biological target: T1, hIP (Homo sapiens, UniProt P43119); experiment: FLIPR calcium signal, hIP; type: cell-based; settings: Table 3, third part
T1 construct: expressed in transfected cells; host or cells: HEK-293(EBNA)
Procedure: (§1) HEK-293(EBNA) cells, stably expressing one type or subtype of recombinant human prostaglandin receptors (prostaglandin receptors expressed: hDP/Gqs5; hEP1; hEP2/Gqs5; hEP3A/Gqi5; hEP4/Gqs5; hFP; hIP; hTP), were cultured in 100 mm culture dishes in high-glucose DMEM medium containing 10% fetal bovine serum, 2 mM 1-glutamine, 250 μg/ml geneticin (G418) and 200 μg/ml hygromycin B as selection markers, and 100 units/ml penicillin G, 100 μg/ml streptomycin and 0.25 μg/ml amphotericin B. • (b) Calcium Signal Studies on the FLIPR™
(§2) Cells were seeded at a density of 5×10^4 cells per well in Biocoat® Poly-D-lysine-coated black-wall, clear-bottom 96-well plates (Becton-Dickinson) and allowed to attach overnight in an incubator at 37° C. Cells were then washed two times with HBSS-HEPES buffer (Hanks Balanced Salt Solution without bicarbonate and phenol red, 20 mM HEPES, pH 7.4) using a Denley Cellwash plate washer (Labsystems). After 45 minutes of dye-loading in the dark, using the calcium-sensitive dye Fluo-4 AM at a final concentration of 2 μM, plates were washed four times with HBSS-HEPES buffer to remove excess dye leaving 100 μl in each well. Plates were re-equilibrated to 37° C. for a few minutes.
(§3) Cells were excited with an Argon laser at 488 nm, and emission was measured through a 510-570 nm bandwidth emission filter (FLIPR™, Molecular Devices, Sunnyvale, Calif.). Drug solution was added in a 50 μl volume to each well to give the desired final concentration. The peak increase in fluorescence intensity was recorded for each well. On each plate, four wells each served as negative (HBSS-HEPES buffer) and positive controls (standard agonists: BW245C (hDP); PGE2 (hEP1; hEP2/Gqs5; hEP3A/Gqi5; hEP4/Gqs5); PGF2α (hFP); carbacyclin (hIP); U-46619 (hTP), depending on receptor). The peak fluorescence change in each drug-containing well was then expressed relative to the controls.
(§4) Compounds were tested in a high-throughput (HTS) or concentration-response (CoRe) format. In the HTS format, forty-four compounds per plate were examined in duplicates at a concentration of 10^−5 M. To generate concentration-response curves, four compounds per plate were tested in duplicates in a concentration range between 10^−5 and 10^−11 M. The duplicate values were averaged. In either, HTS or CoRe format each compound was tested on at least 3 separate plates using cells from different passages to give an n≧3.

hEP4/Gqs5 = biological target: T2, hEP4/Gqs5 (Homo sapiens, UniProt P35408); experiment: FLIPR calcium signal, hEP4; type: cell-based; settings: Table 3, third part
T2 construct: expressed in transfected cells; host or cells: HEK-293(EBNA)
T2 sequence (P35408 whole entry): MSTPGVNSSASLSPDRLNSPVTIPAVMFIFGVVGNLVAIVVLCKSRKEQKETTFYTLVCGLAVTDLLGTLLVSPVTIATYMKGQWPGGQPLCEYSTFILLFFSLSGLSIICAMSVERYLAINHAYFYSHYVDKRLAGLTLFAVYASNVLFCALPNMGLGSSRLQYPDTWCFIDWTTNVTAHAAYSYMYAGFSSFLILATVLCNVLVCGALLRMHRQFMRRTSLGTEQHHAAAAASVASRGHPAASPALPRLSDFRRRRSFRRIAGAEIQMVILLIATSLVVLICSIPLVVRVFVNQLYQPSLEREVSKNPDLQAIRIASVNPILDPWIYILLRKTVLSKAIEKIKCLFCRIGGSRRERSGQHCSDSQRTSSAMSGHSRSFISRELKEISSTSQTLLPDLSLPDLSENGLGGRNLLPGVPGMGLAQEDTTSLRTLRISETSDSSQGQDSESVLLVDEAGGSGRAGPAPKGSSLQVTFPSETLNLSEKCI
Method in brief: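 HEK-293(EBNA) cells stably expressing the recombinant human receptor were loaded with 2 μM Fluo-4 AM for 45 min and read on FLIPR at 37° C in HBSS-HEPES pH 7.4. Peak fluorescence rise was expressed relative to buffer and standard agonist controls (BW245C, PGE2 or U-46619 by receptor); compounds were run 10^−5 to 10^−11 M in duplicate, n≧3.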

hTP = biological target: T3, hTP (Homo sapiens, UniProt P21731); experiment: FLIPR calcium signal, hTP; type: cell-based; settings: Table 3, third part
T3 construct: expressed in transfected cells; host or cells: HEK-293(EBNA)
T3 sequence (P21731 1-343): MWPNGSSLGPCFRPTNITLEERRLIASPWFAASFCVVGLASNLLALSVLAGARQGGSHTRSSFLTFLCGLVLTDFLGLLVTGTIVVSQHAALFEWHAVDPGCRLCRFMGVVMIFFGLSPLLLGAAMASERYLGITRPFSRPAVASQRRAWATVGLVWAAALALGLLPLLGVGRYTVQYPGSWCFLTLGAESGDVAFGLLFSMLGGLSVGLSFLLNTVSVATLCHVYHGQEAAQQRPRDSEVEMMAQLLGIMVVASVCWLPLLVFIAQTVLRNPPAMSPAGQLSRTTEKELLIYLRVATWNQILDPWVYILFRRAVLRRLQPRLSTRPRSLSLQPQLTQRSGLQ
Procedure: as §1, §2, §3, §4

hEP1 = biological target: T4, hEP1 (Homo sapiens, UniProt P34995); experiment: FLIPR calcium signal, hEP1; type: cell-based; settings: Table 3, third part
T4 construct: expressed in transfected cells; host or cells: HEK-293(EBNA)
T4 sequence (P34995 1-402): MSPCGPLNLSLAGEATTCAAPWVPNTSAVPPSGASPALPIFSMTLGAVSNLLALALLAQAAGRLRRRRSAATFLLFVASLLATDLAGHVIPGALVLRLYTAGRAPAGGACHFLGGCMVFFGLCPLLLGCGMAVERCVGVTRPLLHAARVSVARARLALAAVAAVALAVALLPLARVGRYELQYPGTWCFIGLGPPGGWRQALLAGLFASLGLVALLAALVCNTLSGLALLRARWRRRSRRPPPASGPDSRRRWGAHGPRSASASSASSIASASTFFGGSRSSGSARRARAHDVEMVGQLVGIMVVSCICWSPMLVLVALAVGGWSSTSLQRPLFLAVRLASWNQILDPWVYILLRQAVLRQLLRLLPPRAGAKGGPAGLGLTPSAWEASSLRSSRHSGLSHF
Procedure: as §1, §2, §3, §4

hFP = biological target: T5, hFP (Homo sapiens, UniProt P43088); experiment: FLIPR calcium signal, hFP; type: cell-based; settings: Table 3, third part
T5 construct: expressed in transfected cells; host or cells: HEK-293(EBNA)
T5 sequence (P43088 whole entry): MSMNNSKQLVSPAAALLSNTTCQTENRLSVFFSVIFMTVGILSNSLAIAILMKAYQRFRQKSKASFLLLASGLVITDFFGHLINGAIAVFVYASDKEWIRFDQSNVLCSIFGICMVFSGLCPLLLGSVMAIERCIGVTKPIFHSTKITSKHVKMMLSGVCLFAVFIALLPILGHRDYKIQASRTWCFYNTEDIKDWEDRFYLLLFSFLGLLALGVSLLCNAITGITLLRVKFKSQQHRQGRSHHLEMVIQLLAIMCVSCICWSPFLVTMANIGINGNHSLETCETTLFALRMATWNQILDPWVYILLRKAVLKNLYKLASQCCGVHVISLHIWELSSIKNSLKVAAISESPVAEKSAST
Procedure: as §1, §2, §3
Compounds were tested in a high-throughput (HTS) or concentration-response (CoRe) format. […]

monkeys = experiment: Intraocular pressure (IOP) in monkeys; type: in vivo
rabbits = experiment: Ocular surface hyperemia, rabbits; type: in vivo; settings: score
Procedure: (§5) Ocular surface hyperemia was visually assessed and scored according to a system typically used clinically.
(§6) Ocular surface hyperemia was evaluated at the same time points as intraocular pressure measurement. It should be noted that untreated dog eyes frequently have a pink/red tone. Thus, values of trace or even mild are not necessarily out of the normal range. Similar tests were used to determine ocular surface hyperemia on monkeys and rabbits.

Beagle dogs [1] = experiment: Intraocular pressure (IOP) in dogs, pneumatonometry; type: in vivo; settings: topical
Procedure: (§7) Intraocular pressure studies in dogs involved pneumatonometry performed in conscious, Beagle dogs of both sexes (10-15 kg). The animals remained conscious throughout the study and were gently restrained by hand. Drugs were administered topically to one eye as a 25 μL volume drop, the other eye received 25 μL vehicle (0.1% (w/v) polysorbate 80; 10 mM TRIS) as a control. Proparacaine (0.1% w/v) was used for corneal anesthesia during tonometry. Intraocular pressure was determined just before drug administration and at 2, 4 and 6 hr thereafter on each day of the 5 day study. Drug was administered immediately after the first IOP reading.
as §7, with “(0.1%” for “(0.1% (w/v)”, “80:10” for “80; 10”, “(0.1%)” for “(0.1% w/v)”

Beagle dogs [2] = experiment: Ocular surface hyperemia, dogs; type: in vivo; design: key: 0.5: <1 trace; 1 mild; 2: moderate; 3: severe; settings: score
Procedure: as §5, §6

T1 sequence (P43119 whole entry): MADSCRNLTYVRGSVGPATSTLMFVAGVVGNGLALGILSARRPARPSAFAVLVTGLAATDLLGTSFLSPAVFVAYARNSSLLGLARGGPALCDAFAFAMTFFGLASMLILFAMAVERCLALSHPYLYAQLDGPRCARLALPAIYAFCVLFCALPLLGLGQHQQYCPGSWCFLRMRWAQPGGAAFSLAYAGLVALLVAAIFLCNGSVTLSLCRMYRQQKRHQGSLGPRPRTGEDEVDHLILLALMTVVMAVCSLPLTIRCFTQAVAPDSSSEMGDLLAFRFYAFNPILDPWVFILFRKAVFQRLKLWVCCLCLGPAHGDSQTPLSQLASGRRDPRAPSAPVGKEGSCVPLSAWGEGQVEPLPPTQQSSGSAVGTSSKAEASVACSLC

- RABBIT Max. hyperemia (rabbits; Conc. 0.01% g/100 mL): 0.1
Structure (SMILES): CC(C)OC(=O)CCCCCC[C@@H]1[C@@H](c2ccc(C(C)(C)C)cc2)[C@H](O)C[C@H]1Cl
- MONKEY Max. ΔIOP (mm Hg) (monkeys; Conc. 0.01% g/100 mL): 8 mm Hg

- DOG Max. hyperemia (Beagle dogs [2]; Conc. 0.01% g/100 mL): 0.6
Structure (SMILES): CC(C)OC(=O)CCC/C=C\C[C@@H]1[C@@H](c2ccc(C(O)C3CCCCC3)cc2)[C@H](O)C[C@H]1Cl (stereo partly drawn)
- MONKEY Max. ΔIOP (mm Hg) (monkeys; Conc. 0.01% g/100 mL): 5 mm Hg
- DOG Max. ΔIOP (mm Hg) (Beagle dogs [1]; Conc. 0.01% g/100 mL): −4 mm Hg

- RABBIT Max. hyperemia (rabbits; Conc. 0.10% (0.1%) g/100 mL): 0.1
- DOG Max. hyperemia (Beagle dogs [2]; Conc. 0.10% (0.1%) g/100 mL): 0.7
Structure (SMILES): CC(C)OC(=O)CCC/C=C\C[C@@H]1[C@@H](c2ccc(C(C)(C)CO)cc2)[C@H](O)C[C@H]1Cl
- MONKEY Max. ΔIOP (mm Hg) (monkeys; Conc. 0.10% (0.1%) g/100 mL): 6 mm Hg
- DOG Max. ΔIOP (mm Hg) (Beagle dogs [1]; Conc. 0.10% (0.1%) g/100 mL): −5 mm Hg

The next lines start with the compound.

Structure (SMILES): CCCCCC(O)c1ccc([C@@H]2[C@@H](C/C=C\CCCC(=O)O)[C@H](Cl)C[C@@H]2Cl)cc1 (stereo partly drawn)
- Ca2+ Signal-EC50 (nM) IP (hIP): not active
- EC50 (hEP4/Gqs5; read-out: Ca2+ Signal-EC50 (nM) EP4): 10000 nM
- Ca2+ Signal-EC50 (nM) TP (hTP): not active
- Ca2+ Signal-EC50 (nM) EP1 (hEP1): not active
- Ca2+ Signal-EC50 (nM) FP (hFP): not active

Structure (SMILES): CCCCCC(O)c1ccc([C@@H]2[C@@H](C/C=C\CCCC(=O)O)[C@H](Cl)C[C@H]2Cl)cc1 (stereo partly drawn)
- Ca2+ Signal-EC50 (nM) IP (hIP): not active
- Ca2+ Signal-EC50 (nM) EP4 (hEP4/Gqs5): not active
- Ca2+ Signal-EC50 (nM) TP (hTP): not active
- Ca2+ Signal-EC50 (nM) EP1 (hEP1): not active
- Ca2+ Signal-EC50 (nM) FP (hFP): not active

Structure (SMILES): O=C(O)CCC/C=C\C[C@@H]1[C@@H](c2ccc3c(c2)CCC3O)[C@H](O)C[C@H]1Cl (stereo partly drawn)
- MONKEY Max. ΔIOP (mm Hg) (monkeys; Conc. 0.30% g/100 mL): 7 mm Hg
- DOG Max. ΔIOP (mm Hg) (Beagle dogs [1]; Conc. 0.30% g/100 mL): −7 mm Hg
- DOG Max. hyperemia (Beagle dogs [2]; Conc. 0.30% g/100 mL): 1

Structure (SMILES): CC(C)OC(=O)CCC/C=C\C[C@@H]1[C@@H](c2ccc3c(c2)CCC3O)[C@H](O)C[C@H]1Cl (stereo partly drawn)
- DOG Max. ΔIOP (mm Hg) (Beagle dogs [1]; Conc. 0.10% (0.1%) g/100 mL): −12 mm Hg
- RABBIT Max. hyperemia (rabbits; Conc. 0.10% (0.1%) g/100 mL): 0.25
